# Assay results reported in patent US20220257741A1, “COMBINATION THERAPY FOR CANCER” (IO Biotech ApS, priority 2016, published 2022).
# How the values were obtained:
# TC-1 tumour = TC-1 tumour model, IDO-Pep1 with 1-MT (Example 9); assay type: in vivo, C57BL/6 mice; conditions: 1-MT 2 mg/ml in drinking water; IDO-Pep1 100 μg/mouse s.c.
# Protocol: The efficacy of the vaccines was assessed by overall survival.
# 4-6 week-old C57BL/6 mice were injected with 70,000 cell/ mouse of TC-1 cells. Treatment in respective groups was started when tumour reached an average size of approximately 0.075 cm^3 (approx. 10 days after tumour inoculation). For vaccination mouse IDO epitope, IDO-Pep1 was used. Mice were vaccinated subcutaneously with IDO Pep-1 at a dosage of 100 μg/mouse in combination with a Pan-HLADR-binding epitope (PADRE; aK-Cha-[sequence]a, 20 μg/mouse) and QuilA (10 μg/mouse). Mice were vaccinated two-three times with one-week interval, and the efficacy of the peptide vaccines was assessed by measuring tumour volume and/or survival. A group of mice were treated with 1-methyl tryptophan (1-MT) given in drinking water (2 mg/ml) for the duration of the study, and additional group of mice were treated with both IDO-Pep1 and 1-MT.
# [1] = system: IDO-specific T cell cultures; assay: Intracellular cytokine staining of IO102 stimulated T-cell cultures; assay type: cell-based, human; conditions: after four weeks of in vitro IO102 stimulation, patients #02, #05, #07
# Protocol: PBMCs were stimulated with IO102 peptide in X-vivo 15 with 5% human AB serum and 120 U/ml IL2 (Novartis, Denmark) in 24 well plates (Nunc, Fischer Scientific). Initially, 20 μM peptide was used, and the cultures were re-stimulated every 7 days with a log10 decreased concentration of peptide for every week. Cell-cultures were supplemented with new IL2 every 7-10 days. Cells were kept at a concentration of 3-4×10^6/well.
# For enrichment and expansion of the IDO-specific T cells, cultured cells were restimulated, after four weeks of culture, with 20 μM peptide and enriched with the TNF-α Secretion Assay (Miltenyi Biotec) according to the manufacturer's instructions. Cells were peptide stimulated 2.5 hours before staining with the primary antibody. Enriched cells were expanded in a modified rapid expansion protocol (see below).
# T cells enriched for IDO-reactivity were expanded, and approximately 1-2×10^5 cells were used initially. […] Cultures were regularly assessed with regard to cell-numbers and colour of the media, and transferred to T80 or T175 flasks in addition to adding new media if appropriate. Cells were harvested after total 14 days of culture and either analyzed directly or cryopreserved in […] AB serum and 10% dimethyl sulphoxide. […]
# CMV-specific CD8 T cells = assay: Boost effect on CMV peptide-induced stimulation of T cells (tetramer staining, Example 2); assay type: cell-based; conditions: peptide added to CMV stimulated cell cultures, day 15
# Protocol: Day 1: • Buffy coat samples were thawed, washed twice, resuspended in medium. Cells were counted. • Cells were then added to the wells of cell culture plates at 5×10^6/0.5 ml in X-VIVO+5% HS • Wells were stimulated with CMV peptide for 2 hours at room temperature. The CMV peptide used was HCMV pp65 495-504 ([…]). • After 2 hours IDO5, IO102 or an irrelevant HIV peptide used as control were added according to Table X and plates incubated for additional 2 hours at room temperature. • Added 1500 microL X-VIVO/5% HS to each well and placed plates in an incubator at 37° C.
# Day 2 and 9: • IL2 was added ([…]
# Day 8: • Wells were restimulated with IDO5, IO102 or HIV peptides, added according to table X before incubation for 2 hours at room temperature. • After restimulation the contents of each well were split in two and 1.5 ml X-VIVO+5% HS/well was added. • Plates were placed in an incubator at 37° C.
# Day 15: • Cells were harvested and analysed by flow cytometry. • The percentage of CMV-specific CD8 T cells in each well was identified by using a CD8 monoclonal antibody (mAb) as well as the tetramer complexes HLA-A2/CMV pp65 495-504. • As control, cells were in addition stained with the tetramer complex HLA-A2/HIV-1 po1476-484 and CD8 mAb (data not shown).
# THP-1 cells [2] = assay: 51Cr-release assay, PBMC killing of THP-1 (Example 4); assay type: cell-based; conditions: peptide 0.1 μM, day 17, range of E/T ratios
# Protocol: (§1) Buffycoats were thawed (day 0), washed twice, resuspended in medium, counted and plated into wells as set out in Table Z4. THP-1 cells were irradiated with 30 GY and washed twice in medium. THP-1 cells were counted and added to PBMC containing wells as set out in Table Z4 (total volume 2 ml). Plates were placed in an incubator at 37 degrees. On days 7 and 14, 1 ml supernatant/well was removed. Cells were harvested and analyzed for cytotoxic activity on day 17. A standard ^51Cr-release assay was used to measure the cytotoxic potential of the peptide treated PBMCs. ^51Cr labeled THP-1 cells were used as target cells and peptide treated PBMCs as effector cells. Triton-X treated wells was used as maximum measurable lysis and medium alone as minimum lysis.
# % Specific lysis=((cpmsample−cpmminimum)/(cpmmaximum−cpmminimum))×100%
# PBMC = assay: Direct IFN-γ ELISpot of patient PBMC stimulated with IO102 peptide; assay type: cell-based, human; conditions: patient PBMC at baseline, 5 μM peptide
# THP-1 cells [3] = assay: 51Cr-release assay, PBMC killing of THP-1 (Example 5); assay type: cell-based; conditions: peptide 0.1 μM
# Protocol: as §1, with “Z5.” for “Z4.”, “Z5” for “Z4”, “day 7,” for “days 7 and 14,”, “removed. Fresh irradiated THP-1 cells were prepared and counted as above and 1 ml added to the wells as shown in Table Z5” for “removed.”, “23.” for “17.”
# % specific lysis=((CPMsample−cpmminimum)/(cpmmaximum−cpmminimum))×100%
# CT26 tumours = assay: CT26 tumour model, prophylactic vaccination (Example 10); assay type: in vivo, BALB/c mice; conditions: 100 μg peptide + 30 μg CpG in Montanide, 7 days prior to tumour challenge
# Protocol: BALB/c mice were prophylactically vaccinated with a mouse IDO peptide IDO-EP2 ([…]; SEQ ID NO: 34) and challenged with CT26 tumours 7 days later. The efficacy of the peptide vaccine was assessed by tumour burden. The mouse IDO peptide sequence (IDO-Pep1) was selected to provide a murine analog for the human IDO peptides tested in the earlier Examples, because the sequence of murine IDOL differs to that of human IDO1.
# 6-10 week-old BALB/c mice were immunized by subcutaneous injection at the base of the tail of 100 μg peptide IDO-EP2+30 μg CpG in 100 μL, Montanide adjuvant [Montanide ISA 51 VG (Seppic)] prepared as a 1:1 emulsification. Immunizations were carried out 7 days prior to tumour challenge. For CT26 tumour cell engraftment, each mouse received two subcutaneous injections (one on each flank) of 1×10^5 CT26 in 100 μL serum free DMEM. Caliper measurements of tumour length and width were recorded every 3-4 days beginning at day 6. Tumour volume was calculated using the formula 0.52(L×W^2). Mice were euthanized when the combined tumour volume reached the defined endpoint of approximately 2,000 mm^3.
compound,measurement,setting,value
"Cn1cc(C[C@H](N)C(=O)O)c2ccccc21 [1-MT, 1-methyltryptophan]",Therapeutic efficacy (survival),TC-1 tumour,modest therapeutic efficacy
"DTLLKALLEIASCLEKALQVF (listed as Homo sapiens) [IO102, 21 amino acid peptide, residues 194-214 of indoleamine 2,3-dioxygenase]",Cytokine-positive T cells upon stimulation with IO102,[1],"enrichment of cytokine-positive T cells was demonstrated, primarily CD4+"
same,Fraction of CMV-specific T cells,CMV-specific CD8 T cells,larger fraction of CMV-specific T cells compared to adding IDO5/IO101
same,Allogenic killing (lysis) of THP-1 cells by PBMCs,THP-1 cells [2],enhanced the allogenic killing of the THP-1 cells
same,Pre-treatment IFN-γ ELISpot responses towards IO102,PBMC,none of the patients had detectable pre-treatment responses
same,Allogenic killing of THP-1 cells compared to control peptide IDO scrambled,"THP-1 cells [3]; day 23, E/T ratios 2:1-60:1",enhanced the allogenic killing of the THP-1 cells
same,Lysis of THP-1 cells compared to IDO5 peptide,"THP-1 cells [3]; day 23, low E/T ratios",more efficient lysis of THP-1 cells
LPTLSTDGL (listed as Homo sapiens) [IDO-EP2],Anti-tumour effect (tumour volume),CT26 tumours,anti-tumour protective effect
